Measurements from US7718768B2, “Biologically active peptide [sequence]” (CMS Peptides Patent Holding Company Limited, priority 2001, dated 2010).
Marks after values point to notes of the source that are not given here. No end group written: not given here.

Tests used:
Assay type in all cases: in vivo, BALB/c mice
[1] = system: anti-SRBC antibody; assay: Sheep Red Blood Cell (SRBC) hemolysis test, anti-SRBC antibody formation; details: SRBC on day 12, IFN-γ and IL-2 groups 3×10^5 IU/kg/day, X ± SD
How it was run: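 Hemolytic antibody read-out: day-16 mouse serum (1:500) incubated 10 min at 37 °C with 2% SRBC and Cavy-serum complement, supernatant treated with Drabkin solution, OD540nm measured. Animals were SRBC-immunized i.p. (0.2 ml) on day 12 during dosing.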

[2] = immunity organ weight test (thymus gland index, spleen index); details: X ± SD
How it was run: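 Organs (thymus, spleen, liver) were weighed one day after the last of 15 daily i.p. doses given in saline. Indices are expressed as percentage of body weight, with α derived from body weight relative to combined liver and spleen weight.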

[3] = system: NK cell; assay: NK cell cytotoxicity activity test (YAC-1 target cells, MTT) on spleen cells of treated mice; details: IFN-γ and IL-2 groups 3×10^5 IU/kg/day, X ± SD
How it was run: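 Mice (ten per group) dosed i.p. once daily for 15 days in 0.5 ml saline; spleens taken the next day, erythrocytes lysed with Tris-NH4Cl. Spleen cells (4×10^6/ml) mixed with YAC-1 targets (1×10^5/ml) in triplicate per mouse. Viability by MTT, 4 h at 37° C., OD570nm referenced at 630 nm.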

[4] = system: T lymphocyte; assay: T lymphocyte transformation in mice with ascitic fluid type liver cancer H22
Procedure: Healthy BALB/c mice were randomized into peptide group, rmIFN-γ group, rhIL-2 group, and saline group, 15 mice per group, and prepared into H22 carrying mice model as described in section Method 3. After implantation of the cancer cells, the test substances were administered for 15 days, the mice were killed by cervical dislocation. The spleen was isolated aseptically and manually dispersed in cold D-Hank's solution using an injection needle. The dispersed cell suspension was further sieved through a 100-gauge 150 μm diameter stainless steel sieve. After centrifugation at 200 g for 10 minutes, the supernatant was discarded. The cell pellet was re-suspended in 10 volume of Tris-NH4Cl buffer and then kept standing still for 10 minutes at room temperature. The suspended cells were collected by centrifugation at 150 g for 10 minutes. The cells were washed 2-4 times with cold D-Hank's solution by re-suspending and collecting by centrifugation with condition as described above. The washed cells were then diluted to the desired cell densities by RPMI-1640 culture medium, containing 10% fetal bovine serum.
Spleen cells of density 1×10^6/ml were placed onto a 96 wells cell culture plate, 100 μl/well, three parallel wells each of the assay sample and control sample per mouse. To the assay wells, 100 μl/well ConA of 100 μg/ml in RPMI-1640 was added, and 100 μl/well plain RPMI-1640 was used for the controls. The cells were incubated for 66 hrs at 37° C., 5% CO2. The cells were then pelleted by centrifugation at 150 g for 10 minutes.
50 μl/well MTT of 1 mg/ml in RPMI-1640 was added to the cell pellet and the cells re-suspended by shaking for 2 minutes. The incubation was continued for 4 hours. The supernatant was discarded after centrifugation at 150 g for 10 minutes. 120 μl 40 mM HCl-2-propanol was added to the cell pellet and shaken for 3 minutes. Use an ELISA reader to obtain OD570nm of each well referenced at 630 nm.
Each mouse formed three assay wells and three control wells. The Stimulation Index (SI) of each mouse was obtained by first deriving the average OD of the three parallel wells, then dividing the value of the assay wells by the control wells.

[5] = peptide 0.5 μg/kg/day i.p. 15 days
[6] = peptide 5 μg/kg/day i.p. 15 days
[7] = peptide 50 μg/kg/day i.p. 15 days
[8] = peptide 500 μg/kg/day i.p. 15 days
[9] = peptide 5 μg/kg/day i.p. 15 days, IFN-γ and IL-2 groups 3×10^5 IU/kg/day
[10] = peptide 50 μg/kg/day i.p. 15 days, IFN-γ and IL-2 groups 3×10^5 IU/kg/day
[11] = peptide 500 μg/kg/day i.p. 15 days, IFN-γ and IL-2 groups 3×10^5 IU/kg/day
[12] = peptide 0.5 μg/kg/day i.p. 15 days, IFN-γ and IL-2 groups 3×10^5 IU/kg/day

| Substance | anti-SRBC antibody formation (sample serum index) [1, 5] | anti-SRBC antibody formation (sample serum index) [1, 6] | anti-SRBC antibody formation (sample serum index) [1, 7] | anti-SRBC antibody formation (sample serum index) [1, 8] | weight of spleen (spleen index) [2, 8] [%] | NK cell cytotoxic activity (NK cell activity index) [3, 7] [%] | weight of thymus gland (thymus gland index) [2, 9] | weight of thymus gland (thymus gland index) [2, 10] | weight of thymus gland (thymus gland index) [2, 11] | NK cell cytotoxic activity (NK cell activity index) [3, 8] | weight of thymus gland (thymus gland index) [2, 12] | weight of spleen (spleen index) [2, 10] [%] | NK cell cytotoxic activity (NK cell activity index) [3, 5] [%] | NK cell cytotoxic activity (NK cell activity index) [3, 6] | weight of spleen (spleen index) [2, 6] [%] | weight of spleen (spleen index) [2, 12] [%] | Stimulation index ([4]; 0.5 μg/kg i.p. once per day) | Stimulation index ([4]; 5 μg/kg i.p. once per day) | Stimulation index ([4]; 500 μg/kg i.p. once per day) |
| --- | --- | --- | --- | --- | --- | --- | --- | --- | --- | --- | --- | --- | --- | --- | --- | --- | --- | --- | --- |
| FNFVPP [CMS003] | 2 ± 1* Unit | 91 ± 24*^@ Unit | 52 ± 11* Unit | 96 ± 18*^@ Unit | 0.40 ± 0.04 | 85 ± 6 | – | – | – | – | – | – | – | – | – | – | – | – | – |
| IGMESAGIHETTY [CMS016] | – | 93 ± 32*^@ Unit | – | 143 ± 38*^@^ Unit | – | – | 0.22 ± 0.06 % | 0.20 ± 0.03*^@^ % | 0.18 ± 0.05 % | 91 ± 7*^@^ % | – | – | – | – | – | – | – | – | – |
| KAVGHLDDLPGAL [CMS008] | – | 97 ± 26*^@ Unit | – | 82 ± 15*^@ Unit | – | – | – | 0.20 ± 0.04*^@^ % | 0.21 ± 0.03*^@^ % | – | 0.22 ± 0.07*^ % | 0.39 ± 0.08 | 46 ± 12 | 92 ± 4*^@^ % | – | – | – | – | – |
| LRVAPEEHPTL [CMS009] | 2 ± 1* Unit | 79 ± 18*^@ Unit | 13 ± 5* Unit | 113 ± 22*^@^ Unit | 0.41 ± 0.03 | – | – | – | – | – | – | – | – | 92 ± 6*^@^ % | – | – | – | – | – |
| PSIVGRPRHQGVM [CMS015] | 13 ± 4* Unit | 94 ± 37*^@ Unit | 54 ± 9*^@ Unit | 136 ± 22*^@^ Unit | 0.36 ± 0.07 | 78 ± 8 | 0.20 ± 0.08 % | – | – | – | – | – | – | – | 0.38 ± 0.15 | – | – | – | – |
| PTTKTYFPHF [CMS001] | – | 110 ± 24*^@ Unit | – | – | 0.43 ± 0.07 | 85 ± 10 | 0.22 ± 0.05 % | – | – | – | – | – | – | – | – | 0.40 ± 0.05 | – | – | – |
| Phe Glu Glu Glu (FEEE; listed as Sus scrofa) [CMS032] | – | 157 ± 37*^@^ Unit | 131 ± 24*^@^ Unit | – | – | – | 0.29 ± 0.04*^@^ % | 0.27 ± 0.03*^@^ % | 0.25 ± 0.03*^@^ % | 87 ± 5 % | 0.21 ± 0.06 % | – | – | – | – | – | – | – | – |
| Phe Val Asn Asp (FVND; listed as Sus scrofa) [CMS035] | – | 176 ± 39*^@^ Unit | 97 ± 10*^@^ Unit | 88 ± 16*^@ Unit | – | 72 ± 9 | 0.21 ± 0.04 % | – | – | 90 ± 10 % | – | – | 76 ± 10 | – | – | – | 1.40 ± 0.13*^$ | 1.46 ± 0.16*^$ | – |
| Pro Glu Asn Phe (PENF; listed as Sus scrofa) [CMS034] | 20 ± 2* Unit | 172 ± 37*^@^ Unit | 136 ± 11*^@^ Unit | – | – | – | 0.27 ± 0.06*^@^ % | 0.19 ± 0.04*^ % | 0.20 ± 0.05*^ % | – | – | – | – | 90 ± 5 % | – | – | 1.37 ± 0.10*^$ | – | – |
| RVAPEEHPTL [CMS011] | 5 ± 3* Unit | 115 ± 27*^@^ Unit | 67 ± 9*^@ Unit | 188 ± 16*^@^ Unit | 0.41 ± 0.04 | – | 0.22 ± 0.04 % | – | – | – | – | – | 79 ± 3 | 76 ± 10 % | – | – | – | – | – |
| Tyr Ser Leu (YSL; listed as Sus scrofa) [CMS024] | 98 ± 6*^@^ Unit | 171 ± 39*^@^ Unit | – | 75 ± 29*^@ Unit | 0.34 ± 0.05 | – | 0.23 ± 0.06*^ % | 0.27 ± 0.02*^@^ % | – | 89 ± 8 % | – | – | – | 78 ± 3 % | – | – | 1.46 ± 0.19*^$ | 1.45 ± 0.21*^$ | – |
| VAPEEHPTLLTEAPLNPK [CMS010] | 10 ± 3* Unit | – | – | 112 ± 30*^@^ Unit | – | – | 0.27 ± 0.05*^@^ % | – | 0.19 ± 0.04 % | 91 ± 4*^@^ % | 0.21 ± 0.03 % | 0.38 ± 0.05 | – | 82 ± 9 % | – | – | – | – | 1.45 ± 0.21*^$ |
| VGMGQKDSY [CMS019] | 12 ± 3* Unit | 118 ± 20*^@^ Unit | – | 91 ± 26*^@ Unit | 0.63 ± 0.08 | – | 0.24 ± 0.02*^@^ % | 0.20 ± 0.03*^@^ % | 0.19 ± 0.02 % | – | – | – | – | – | – | – | 1.50 ± 0.19*^$ | – | – |
